Experimental data reported in ChEMBL document CHEMBL3046404, “The cytotoxic effects of diketopiperaizes against Leishmania donovani promastigotes and amastigotes” (Med Chem Res, 2013).
Converted amounts (≈) assume the structure as drawn.

How the values were obtained:
Leishmania donovani [1] = test: Antileishmanial activity against promastigote form of Leishmania donovani MHOH/IN/1983/AG83 infected BALB/c mouse assessed as spleen weight at 10 mg/kg, ip administered 1 month post-infection 2 times per week for 30 days (reference value: 509 +/- 25 mg); format: functional; conditions: route intraperitoneal
Leishmania donovani [2] = test: Antileishmanial activity against promastigote form of Leishmania donovani MHOH/IN/1983/AG83 after 2 hr by MTT assay; format: functional, organism-based; conditions: Leishmania donovani, MHOH/IN/1983/AG83, 2 h; read-out: IC50
[3] = Toxicity against BALB/c Mus musculus (mouse) peritoneal macrophages assessed as concentration required for cell lysis after 48 hr; format: cell-based, Peritoneal macrophage cell; conditions: read-out: Activity
Mus musculus [4] = test: Toxicity against BALB/c Mus musculus (mouse) assessed as blood urea level at 10 mg/kg, ip administered 2 times per week for 30 days (reference value: 29 +/- 6 mg/dl); format: organism-based; parameters: dose 10 mg/kg, route intraperitoneal; conditions: in vivo, 720 h
Mus musculus [5] = test: Toxicity against BALB/c Mus musculus (mouse) assessed as SGOT level at 10 mg/kg, ip administered 2 times per week for 30 days (reference value: 71 +/- 4 IU/l); format: organism-based; parameters: dose 10 mg/kg, route intraperitoneal; conditions: in vivo, 720 h
Mus musculus [6] = test: Toxicity against BALB/c Mus musculus (mouse) assessed as SGPT level at 10 mg/kg, ip administered 2 times per week for 30 days (reference value: 28 +/- 5 IU/l); format: organism-based; parameters: dose 10 mg/kg, route intraperitoneal; conditions: in vivo, 720 h
Leishmania donovani [7] = test: Antileishmanial activity against promastigote form of Leishmania donovani MHOH/IN/1983/AG83 infected BALB/c mouse assessed as liver weight at 10 mg/kg, ip administered 1 month post-infection 2 times per week for 30 days (reference value: 1,746 +/- 56 mg); format: functional; conditions: route intraperitoneal
Leishmania donovani [8] = test: microbe, parasite or virus in culture; conditions: MHOH/IN/1983/AG83, 48 h
Description: Antileishmanial activity against amastigote form of Leishmania donovani MHOH/IN/1983/AG83 infected BALB/c mouse peritoneal macrophages after 48 hr by Geimsa staining method

Leishmania donovani [9] = test: Antileishmanial activity against promastigote form of Leishmania donovani MHOH/IN/1983/AG83 infected in BALB/c mouse assessed as reduction in parasite burden in liver at 10 mg/kg, ip administered 1 month post-infection 2 times per week for 30 days relative to control; format: functional; parameters: scale not given: the % may be the effect or the level left; conditions: route intraperitoneal
Leishmania donovani [10] = test: Antileishmanial activity against promastigote form of Leishmania donovani MHOH/IN/1983/AG83 infected BALB/c mouse assessed as spleen weight at 4 mg/kg, ip administered 1 month post-infection 2 times per week for 30 days (reference value: 509 +/- 25 mg); format: functional; conditions: route intraperitoneal
Leishmania donovani [11] = test: Antileishmanial activity against promastigote form of Leishmania donovani MHOH/IN/1983/AG83 infected BALB/c mouse assessed as reduction in parasite burden in liver at 4.5 mg/kg, ip administered 1 month post-infection 2 times per week for 30 days relative to control; format: functional; parameters: scale not given: the % may be the effect or the level left; conditions: route intraperitoneal
Leishmania donovani [12] = test: Antileishmanial activity against amastigote form of Leishmania donovani MHOH/IN/1983/AG83 infected BALB/c mouse peritoneal macrophages at 10 ug/ml after 48 hr by Geimsa staining method relative to control; format: functional
Leishmania donovani [13] = test: Antileishmanial activity against promastigote form of Leishmania donovani MHOH/IN/1983/AG83 infected in BALB/c mouse assessed as reduction in parasite burden in spleen at 10 mg/kg, i.p. administered 1 month post-infection 2 times per week for 30 days relative to control; format: functional; parameters: scale not given: the % may be the effect or the level left; conditions: route intraperitoneal
Leishmania donovani [14] = test: Antileishmanial activity against promastigote form of Leishmania donovani MHOH/IN/1983/AG83 infected in BALB/c mouse assessed as reduction in parasite burden in spleen at 4.5 mg/kg, i.p. administered 1 month post-infection 2 times per week for 30 days relative to control; format: functional; parameters: scale not given: the % may be the effect or the level left; conditions: route intraperitoneal
Mus musculus [15] = test: Toxicity against BALB/c Mus musculus (mouse) assessed as blood urea level at 4 mg/kg, ip administered 2 times per week for 30 days (reference value: 29 +/- 6 mg/dl); format: organism-based; parameters: dose 4 mg/kg, route intraperitoneal; conditions: in vivo, 720 h
Mus musculus [16] = test: Toxicity against BALB/c Mus musculus (mouse) assessed as SGOT level at 4 mg/kg, ip administered 2 times per week for 30 days (reference value: 71 +/- 4 IU/l); format: organism-based; parameters: dose 4 mg/kg, route intraperitoneal; conditions: in vivo, 720 h
Mus musculus [17] = test: Toxicity against BALB/c Mus musculus (mouse) assessed as SGPT level at 4 mg/kg, ip administered 2 times per week for 30 days (reference value: 28 +/- 5 IU/l); format: organism-based; parameters: dose 4 mg/kg, route intraperitoneal; conditions: in vivo, 720 h
Leishmania donovani [18] = test: Antileishmanial activity against promastigote form of Leishmania donovani MHOH/IN/1983/AG83 infected BALB/c mouse assessed as liver weight at 4 mg/kg, ip administered 1 month post-infection 2 times per week for 30 days (reference value: 1,746 +/- 56 mg); format: functional; conditions: route intraperitoneal

Compound	Activity (Leishmania donovani [1]) [mg]	IC50 (Leishmania donovani [2]) [µg/mL]	MCC at 48 h [3] [µg/mL]	Activity (Mus musculus [4]) [mg/dL]	Activity (Mus musculus [5]) [IU/L]	Activity (Mus musculus [6]) [IU/L]	IC50 (Leishmania donovani [8]) [µg/mL]	further results
Cc1ccc(N2CC(=O)N(c3ccc(C)cc3)CC2=O)cc1	184	1.1 (≈ 3.74 µM)	> 40	34	75	33	1.8 (≈ 6.12 µM)	Activity (Leishmania donovani [7]): 1127 mg
C[C@@H]1[C@H](O)[C@@H](C)/C=C/C=C/C=C/C=C/C=C/C=C/C=C/[C@H](O[C@@H]2O[C@H](C)[C@@H](O)[C@H](N)[C@@H]2O)C[C@@H]2O[C@](O)(C[C@@H](O)C[C@@H](O)[C@H](O)CC[C@@H](O)C[C@@H](O)CC(=O)O[C@H]1C)C[C@H](O)[C@H]2C(=O)O [AMPHOTERICIN B]			> 4				0.1 (≈ 0.108 µM)	
O=C1CN(c2cccc(Cl)c2)C(=O)CN1c1cccc(Cl)c1	87	1 (≈ 2.98 µM)	> 25	29	67	28	0.53 (≈ 1.58 µM)	Activity (Leishmania donovani [9]): 94.75%; Activity (Leishmania donovani [10]): 155 mg; Activity (Leishmania donovani [11]): 69.73%; Activity (Leishmania donovani [12]): 92.19%; Activity (Leishmania donovani [13]): 91.35%; Activity (Leishmania donovani [14]): 67.97%; Activity (Mus musculus [15]): 28 mg/dL; Activity (Mus musculus [16]): 69 IU/L; Activity (Mus musculus [17]): 29 IU/L; Activity (Leishmania donovani [18]): 1134 mg
CC(=O)c1cccc(N2CC(=O)N(c3cccc(C(C)=O)c3)CC2=O)c1		3.4 (≈ 9.7 µM)	> 50				2 (≈ 5.71 µM)	
O=C1CN(c2cc(Cl)ccc2Cl)C(=O)CN1c1cc(Cl)ccc1Cl		2.6 (≈ 6.43 µM)	> 60				6.6 (≈ 16.3 µM)	
O=C1CN(c2cccc(Cl)c2Cl)C(=O)CN1c1cccc(Cl)c1Cl		2.2 (≈ 5.44 µM)	> 50				4.3 (≈ 10.6 µM)	
O=C1CN(c2ccccc2)C(=O)CN1c1ccccc1	166	1.4 (≈ 5.26 µM)	> 30	32	74	34	1.6 (≈ 6.01 µM)	Activity (Leishmania donovani [7]): 999 mg
